Experimental data reported in patent US11673890B2, “N1-pyrazolospiroketone acetyl-CoA carboxylase inhibitors” (Pfizer Inc., priority 2010, dated 2023).

Key:
[1] = target: T1, recombinant human ACC2 (rhACC2) (Homo sapiens, UniProt O00763, V2141I); experiment: recombinant hACC2 Transcreener assay (ADP detection FP); type: biochemical; details: 50 μM ATP, minimum of n=3
T1 construct: a full length Cytomax clone of ACC2 was purchased from Cambridge Bioscience Limited; made in house; host or cells: CHO cells (tetracycline-inducible, pcDNA5 FRT TO-TOPO)
T1 sequence (O00763 whole entry V2141I): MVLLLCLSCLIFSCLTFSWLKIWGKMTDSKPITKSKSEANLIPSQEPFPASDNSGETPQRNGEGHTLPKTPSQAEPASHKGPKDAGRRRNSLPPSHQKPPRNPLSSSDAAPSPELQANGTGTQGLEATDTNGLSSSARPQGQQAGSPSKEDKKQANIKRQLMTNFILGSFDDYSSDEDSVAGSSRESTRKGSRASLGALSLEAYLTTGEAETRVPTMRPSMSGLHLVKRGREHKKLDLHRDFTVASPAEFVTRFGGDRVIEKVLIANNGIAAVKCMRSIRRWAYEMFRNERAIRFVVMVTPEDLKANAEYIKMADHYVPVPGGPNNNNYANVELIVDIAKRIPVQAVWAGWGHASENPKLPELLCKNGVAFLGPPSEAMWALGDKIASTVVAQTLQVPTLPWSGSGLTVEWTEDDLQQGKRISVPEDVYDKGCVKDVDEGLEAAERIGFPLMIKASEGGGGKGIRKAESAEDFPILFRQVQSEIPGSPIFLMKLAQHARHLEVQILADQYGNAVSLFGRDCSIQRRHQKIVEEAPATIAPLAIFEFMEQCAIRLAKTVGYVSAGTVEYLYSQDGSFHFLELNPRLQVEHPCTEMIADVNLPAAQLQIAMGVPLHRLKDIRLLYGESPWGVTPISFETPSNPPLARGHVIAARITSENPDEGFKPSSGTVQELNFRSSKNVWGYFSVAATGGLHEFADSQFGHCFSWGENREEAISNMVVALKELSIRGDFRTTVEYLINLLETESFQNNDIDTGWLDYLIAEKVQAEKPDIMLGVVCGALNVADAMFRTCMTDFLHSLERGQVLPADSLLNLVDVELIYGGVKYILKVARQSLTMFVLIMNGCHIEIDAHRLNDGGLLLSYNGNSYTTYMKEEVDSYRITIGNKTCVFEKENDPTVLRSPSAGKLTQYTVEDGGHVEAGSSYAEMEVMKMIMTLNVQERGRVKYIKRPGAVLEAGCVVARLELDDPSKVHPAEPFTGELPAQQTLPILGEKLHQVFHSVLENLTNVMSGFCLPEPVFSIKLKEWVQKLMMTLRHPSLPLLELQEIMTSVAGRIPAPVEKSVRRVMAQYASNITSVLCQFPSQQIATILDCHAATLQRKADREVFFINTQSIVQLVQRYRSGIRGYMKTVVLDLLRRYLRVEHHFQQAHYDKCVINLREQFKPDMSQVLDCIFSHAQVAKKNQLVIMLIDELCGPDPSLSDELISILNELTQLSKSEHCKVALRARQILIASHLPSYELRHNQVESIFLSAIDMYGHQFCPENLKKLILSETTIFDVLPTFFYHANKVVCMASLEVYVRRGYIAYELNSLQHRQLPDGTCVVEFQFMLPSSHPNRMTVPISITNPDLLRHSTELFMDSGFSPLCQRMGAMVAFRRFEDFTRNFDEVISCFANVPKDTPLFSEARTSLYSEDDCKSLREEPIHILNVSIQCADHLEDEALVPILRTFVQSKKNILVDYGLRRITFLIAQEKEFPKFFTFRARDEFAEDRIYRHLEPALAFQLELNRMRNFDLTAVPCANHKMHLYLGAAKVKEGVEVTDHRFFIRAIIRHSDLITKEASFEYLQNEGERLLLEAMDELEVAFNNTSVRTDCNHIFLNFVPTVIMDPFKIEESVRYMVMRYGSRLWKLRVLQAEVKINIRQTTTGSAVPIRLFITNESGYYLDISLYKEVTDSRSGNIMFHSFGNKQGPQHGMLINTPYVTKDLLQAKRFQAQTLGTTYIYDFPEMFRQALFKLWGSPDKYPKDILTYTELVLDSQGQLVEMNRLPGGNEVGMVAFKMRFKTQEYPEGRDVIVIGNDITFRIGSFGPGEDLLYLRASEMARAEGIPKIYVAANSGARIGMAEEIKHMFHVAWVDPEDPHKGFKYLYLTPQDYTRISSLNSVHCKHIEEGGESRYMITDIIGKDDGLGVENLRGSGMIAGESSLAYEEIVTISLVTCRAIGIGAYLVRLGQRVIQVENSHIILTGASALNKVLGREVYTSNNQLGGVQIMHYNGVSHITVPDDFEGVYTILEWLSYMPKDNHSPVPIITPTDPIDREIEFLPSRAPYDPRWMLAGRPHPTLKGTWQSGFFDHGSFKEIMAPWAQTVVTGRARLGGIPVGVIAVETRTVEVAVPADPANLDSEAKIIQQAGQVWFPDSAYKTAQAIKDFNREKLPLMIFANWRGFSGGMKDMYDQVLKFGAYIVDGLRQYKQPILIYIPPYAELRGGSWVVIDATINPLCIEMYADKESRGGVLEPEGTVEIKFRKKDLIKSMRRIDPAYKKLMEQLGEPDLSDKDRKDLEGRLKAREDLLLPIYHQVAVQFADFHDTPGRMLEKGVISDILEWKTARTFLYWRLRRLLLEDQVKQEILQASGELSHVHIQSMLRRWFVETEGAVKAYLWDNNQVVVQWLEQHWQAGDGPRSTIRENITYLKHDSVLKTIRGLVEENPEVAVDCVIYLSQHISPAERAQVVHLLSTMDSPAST
Experimental: For example direct inhibition of ACC activity, for the compound of Formula (1) was determined using preparations of recombinant human ACC1 (rhACC1) and recombinant human ACC2 (rhACC2). Representative sequences of the recombinant human ACC1 and ACC2 that can be used in the assay are provided in FIG. 1 (SEQ ID NO. 1) and FIG. 2 (SEQ. ID NO. 2), respectively.
[3] Preparation of rhACC2. Human ACC2 inhibition was measured using purified recombinant human ACC2 (hrACC2). Briefly, a full length Cytomax clone of ACC2 was purchased from Cambridge Bioscience Limited and was sequenced and subcloned into PCDNA5 FRT TO-TOPO (Invitrogen, Carlsbad, Calif.). The ACC2 was expressed in CHO cells by tetracycline induction and harvested in 5 liters of DMEM/F12 with glutamine, biotin, hygromycin and blasticidin with 1 μg/mL tetracycline (Invitrogen, Carlsbad, Calif.). The conditioned medium containing ACC2 was then applied to a Softlink Soft Release Avidin column (Promega, Madison, Wis.) and eluted with 5 mM biotin. 4 mgs of ACC2 were eluted at a concentration of 0.05 mg/mL (determined by A280) with an estimated purity of 95% ([…]). The purified ACC2 was dialyzed in 50 mM Tris, 200 mM NaCl, 4 mM DTT, 2 mM EDTA, and 5% glycerol. The pooled protein was frozen and stored at −80° C., with no loss of activity upon thawing. For measurement of ACC2 activity and assessment of ACC2 inhibition, test compounds were dissolved in DMSO and added to the rhACC2 enzyme as a 5× stock with a final DMSO concentration of 1%.
[4] Measurement of human ACC2 inhibition. hACC2 was assayed in a Costar #3676 (Costar, Cambridge, Mass.) 384-well plate using the Transcreener ADP detection FP assay kit (Bellbrook Labs, Madison, Wis.) using the manufacturer's recommended conditions for a 50 uM ATP reaction. The final conditions for the assay were 50 mM HEPES, pH 7.2, 5 mM MgCl2, 5 mM tripotassium citrate, 2 mM DTT, 0.1 mg/mL BSA, 30 μM acetyl-CoA, 50 μM ATP, and 8 mM KHCO3. Typically, a 10 μl reaction was run for 50 min at 25° C., and 10 μl of Transcreener stop and detect buffer was added and the combination incubated at room temp for an additional 1 hour. The data was acquired on an Envision Fluorescence reader (Perkinelmer) using a 620 excitation Cy5 FP general dual mirror, 620 excitation Cy5 FP filter, 688 emission (S) and a 688 (P) emission filter.
The results using the recombinant hACC1 and recombinant hACC2 Transcreener assays described above are summarized in the table below for the Compounds of Formula (I) exemplified in the Examples above. All of the examples in both assays were run with a minimum of n=3.

[2] = target: T2, recombinant human ACC1 (rhACC1) (Homo sapiens, UniProt Q13085, DEL44-44); experiment: recombinant hACC1 Transcreener assay (ADP detection FP); type: biochemical; details: recombinant hACC1 Transcreener assay, 50 μM ATP, minimum of n=3; read-out: hACC1
T2 construct: infected with recombinant baculovirus containing full length human ACC1 cDNA; made in house; host or cells: SF9 insect cells (baculovirus)
Experimental: For example direct inhibition of ACC activity, for the compound of Formula (1) was determined using preparations of recombinant human ACC1 (rhACC1) and recombinant human ACC2 (rhACC2).
[1] Preparation of rhACC1. Two liters of SF9 cells, infected with recombinant baculovirus containing full length human ACC1 cDNA, were suspended in ice-cold lysis buffer (25 mM Tris, pH 7.5; 150 mM NaCl; 10% glycerol; 5 mM imidazole (EMD Bioscience; Gibbstown, N.J.); 2 mM TCEP (BioVectra; Charlottetown, Canada); Benzonase nuclease (10000 U/100 g cell paste; Novagen; Madison, Wis.); EDTA-free protease inhibitor cocktail (1 tab/50 mL; Roche Diagnostics; Mannheim, Germany). Cells were lysed by 3 cycles of freeze-thaw and centrifuged at 40,000×g for 40 minutes (4° C.). Supernatant was directly loaded onto a HisTrap FF crude column (GE Healthcare; Piscataway, N.J.) and eluted with an imidazole gradient up to 0.5 M over 20 column volumes (CV). ACC1-containing fractions were pooled and diluted 1:5 with 25 mM Tris, pH 7.5, 2 mM TCEP, 10% glycerol and direct loaded onto a CaptoQ (GE Healthcare) column and eluted with an NaCl gradient up to 1 M over 20 CV's. Phosphate groups were removed from purified ACC1 by incubation with lambda phosphatase (100 U/10 μM target protein; New England Biolabs; Beverly, Mass.) for 14 hours at 4° C.; okadaic acid was added (1 μM final concentration; Roche Diagnostics) to inhibit the phosphatase. Purified ACC1 was exchanged into 25 mM Tris, pH 7.5, 2 mM TCEP, 10% glycerol, 0.5 M NaCl by 6 hour dialysis at 4° C. Aliquots were prepared and frozen at −80° C.
[2] […] The final conditions for the assay were 50 mM HEPES, pH 7.2, 10 mM MgCl2, 7.5 mM tripotassium citrate, 2 mM DTT, 0.1 mg/mL BSA, 30 μM acetyl-CoA, 50 μM ATP, and 10 mM KHCO3. Typically, a 10 μl reaction was run for 120 min at 25° C., and 10 μl of Transcreener stop and detect buffer was added and the combination incubated at room temp for an additional 1 hour.
All of the examples in both assays were run with a minimum of n=3.

Row | IC50 [1] [nM] | IC50 [2] [nM] | Compound
1 | 557 | 3140 | CC(C)Nc1nc(-c2ccc(C(=O)O)cc2)ccc1C(=O)N1CCC2(CC1)CC(=O)c1c(cnn1C(C)(C)C)C2 [Example 24, 4-{5-[(1-tert-butyl-7-oxo-1,4,6,7-tetrahydro-1′H-spiro[indazole-5,4′-piperidin]-1′-yl)carbonyl]-6-(isopropylamino)pyridin-2-yl}benzoic acid]
2 | 28 | 59.5 | CC(C)n1ncc2c1C(=O)CC1(CCN(C(=O)c3ccc(-c4cccc(-c5nnn[nH]5)c4)cc3)CC1)C2 [Example 48, 1-isopropyl-1′-{[3′-(1H-tetrazol-5-yl)biphenyl-4-yl]carbonyl}-1,4-dihydrospiro[indazole-5,4′-piperidin]-7(6H)-one]
3 | 12.5 | 32.6 | CC(C)n1ncc2c1C(=O)CC1(CCN(C(=O)c3cc4c(-c5cccc(C(=O)O)c5)nccc4[nH]3)CC1)C2 [Example 35, 3-{2-[(1-isopropyl-7-oxo-1,4,6,7-tetrahydro-1′H-spiro[indazole-5,4′-piperidin]-1′-yl)carbonyl]-1H-pyrrolo[3,2-c]pyridin-4-yl}benzoic acid]
4 | 12.5 | 31.8 | CC(C)n1ncc2c1C(=O)CC1(CCN(C(=O)c3cc(-c4cccc(C(=O)O)c4)nc(N(C)C)c3)CC1)C2 [Example 32, 3-{6-(dimethylamino)-4-[(1-isopropyl-7-oxo-1,4,6,7-tetrahydro-1′H-spiro[indazole-5,4′-piperidin]-1′-yl)carbonyl]pyridin-2-yl}benzoic acid]
5 | 15.2 | 8.6 | CC(C)n1ncc2c1C(=O)CC1(CCN(C(=O)c3cc4ccc(-c5cccc(C(=O)O)c5)cc4[nH]3)CC1)C2 [Example 41, 3-{2-[(1-isopropyl-7-oxo-1,4,6,7-tetrahydro-1′H-spiro[indazole-5,4′-piperidin]-1′-yl)carbonyl]-1H-indol-6-yl}benzoic acid]
6 | 11.6 | 9.75 | CC(C)n1ncc2c1C(=O)CC1(CCN(C(=O)c3cc4c(-c5ccc(C(=O)O)cc5)cccc4[nH]3)CC1)C2 [Example 16, 4-{2-[(1-isopropyl-7-oxo-1,4,6,7-tetrahydro-1′H-spiro[indazole-5,4′-piperidin]-1′-yl)carbonyl]-1H-indol-4-yl}benzoic acid]
7 | 18.8 | 16.1 | CC(C)n1ncc2c1C(=O)CC1(CCN(C(=O)c3cc4c(-c5ccc(C(=O)O)cc5)nccc4[nH]3)CC1)C2 [Example 30, 4-{2-[(1-isopropyl-7-oxo-1,4,6,7-tetrahydro-1′H-spiro[indazole-5,4′-piperidin]-1′-yl)carbonyl]-1H-pyrrolo[3,2-c]pyridin-4-yl}benzoic acid]
8 | 6.1 | 10.2 | CC(C)n1ncc2c1C(=O)CC1(CCN(C(=O)c3cc4c(-c5cccc(C(=O)O)c5)cncc4[nH]3)CC1)C2 [Example 40, 3-{2-[(1-isopropyl-7-oxo-1,4,6,7-tetrahydro-1′H-spiro[indazole-5,4′-piperidin]-1′-yl)carbonyl]-1H-pyrrolo[2,3-c]pyridin-4-yl}benzoic acid]
9 | 29.8 | 29.1 | CC(C)n1ncc2c1C(=O)CC1(CCN(C(=O)c3cc(-c4cccc(C(=O)O)c4)c4cc[nH]c4c3)CC1)C2 [Example 39, 3-{6-[(1-isopropyl-7-oxo-1,4,6,7-tetrahydro-1′H-spiro[indazole-5,4′-piperidin]-1′-yl)carbonyl]-1H-indol-4-yl}benzoic acid]
10 | 30.4 | 39.9 | CC(C)n1ncc2c1C(=O)CC1(CCN(C(=O)c3ccc(-c4ccc(C(=O)O)cc4)nc3NCC(F)(F)F)CC1)C2 [Example 42, 4-{5-[(1-isopropyl-7-oxo-1,4,6,7-tetrahydro-1′H-spiro[indazole-5,4′-piperidin]-1′-yl)carbonyl]-6-[(2,2,2-trifluoroethyl)amino]pyridin-2-yl}benzoic acid]
11 | 2260 | 5400 | CC(C)n1ncc2c1C(=O)CC1(CCN(C(=O)c3cc(-c4cccc(C(=O)O)c4)[nH]c(=O)c3)CC1)C2 [Example 3, 3-(4-(1-isopropyl-7-oxo-1,4,6,7-tetrahydrospiro[indazole-5,4′-piperidine]-1′-ylcarbonyl)-6-oxo-1,6-dihydropyridin-2-yl)benzoic acid]
12 | 3.2 | 6.6 | CC(C)n1ncc2c1C(=O)CC1(CCN(C(=O)c3cc(-c4ccc(C(=O)O)cc4)c4cc[nH]c4c3)CC1)C2 [Example 37, 4-{6-[(1-isopropyl-7-oxo-1,4,6,7-tetrahydro-1′H-spiro[indazole-5,4′-piperidin]-1′-yl)carbonyl]-1H-indol-4-yl}benzoic acid]

Row | Compound | IC50 [1] [nM] | IC50 [2] [nM]
13 | 3-{2-[(1-isopropyl-7-oxo-1,4,6,7-tetrahydro-1′H-spiro[indazole-5,4′-piperidin]-1′-yl)carbonyl]-1H-benzimidazol-4-yl}benzoic acid [Example 45] | 10 | 4.9
14 | 3-{5-[(1-isopropyl-7-oxo-1,4,6,7-tetrahydro-1′H-spiro[indazole-5,4′-piperidin]-1′-yl)carbonyl]-6-(methylamino)pyridin-2-yl}benzoic acid [Example 5] | 114 | 163
